Measurements from patent publication US20150320709A1, “METHODS AND COMPOSITIONS FOR FACILITATING WEIGHT LOSS BY ADMINISTRATION OF THYROID HORMONES” (priority 2011, published 2015).

Assay: Circulating thyroid hormone labs (FT3, FT4, rT3, TSH) in weight loss program patients on thyroid hormone treatment
Assay type: in vivo, human
Text: FIG. 1 depicts hormonal responses to a hypocaloric state with subsequent treatment. Note: Time frames and shapes of response curves are approximated. Levels of all four hormones are normal before the diet (Time A). At time between time points B and D, TSH is dropping slightly to signal the thyroid gland to make less thyroid hormone. This drop is the mechanism to decrease metabolism in the hypocaloric state. At point C, free T3 begins to drop as rT3 increases. Also at time point C, different observations have been reported for changes in FT4: in our experience, FT4 also drops as indicated on the graph. In the literature, some report no change, whereas others report an increase in FT4. By the time of the blood sampling (time E), in our experience, patients whose FT3 and FT4 have dropped to the low end of normal (with possible above normal rT3 levels) are those experiencing symptoms of low thyroid. They may have any of the following symptoms: feeling cold, cold hands and feet, elevated diastolic blood pressure secondary to vasoconstriction, fatigue, depression, constipation, hair loss, dry skin, insomnia, as well as others. They have often hit a plateau of weight loss even though they have continued to maintain their hypocaloric diet and exercise program. At point F, we begin treatment with thyroid hormone (for example, T4 with T3, T3 alone, T3 with T2 and T4, or T2 alone. Between points F and G, FT3 and rT3 (and FT4 if T4 was administered) are returning to more normal levels, while TSH plummets, often to undetectable levels. At time point H, symptoms of low thyroid are resolved, the patient has no symptoms of hyperthyroidism, and if rT3 had risen and was treated appropriately, rT3 decreased.
The first patient example is a person, 5′2″, weight 268 lbs, body mass index (BMI) 49 (nl 19-24; overweight 25-29; obesity≧30). Baseline blood pressure was 110/74, blood sugar (BS) was 153 mg/dL 10 days after their first visit. Their medical problems at baseline included obesity, type 2 diabetes mellitus (DM2), high blood pressure (HTN), fatigue, depression, and asthma. Their medications included glipizide 10 mg daily, amitriptyline 50 mg daily, metoprolol 50 mg daily, furosemide 40 mg daily, potassium chloride, lisinopril 10 mg daily, Advair Discus 500/50 twice daily (bid), and montelukast 10 mg daily. They were started on our comprehensive program. Five months after starting their weight loss treatment, they developed symptoms of hypothyroidism with constipation and fatigue. They had lost 28 lbs by this time and was having difficulty losing more weight even though they were eating less than they were before their weight loss treatment began. At the start of treatment, their FT4 was 0.9 ng/dL (nl 0.7-1.48). At the time of their low thyroid symptoms, their FT3 was 2.9 pg/mL (nl 1.71-3.71) and their FT4 was 0.91 ng/dL (nl 0.7-1.48). They were then treated with thyroid hormone (desiccated thyroid with a ratio of T4:T3 of about 4:1) at 60 mg daily for 6 days to acclimate, then increased to 120 mg daily. […] After two years on their weight loss treatment, their weight was 231 lbs. […] We tested for rT3 at this point. Their labs on the 150 mg dose of desiccated thyroid were: rT3 394 pg/mL (nl 90-350), FT3 3.94 pg/mL (nl 1.71-3.71), and FT4 1.24 ng/dL (nl 0.7-1.48). The task of bringing down their rT3 was then addressed. Over a period of a few months, their desiccated thyroid hormone was discontinued and instead the patient was given gradually increasing doses of T3 only, starting at 20 mcg daily and gradually increasing the T3 to 60 mcg bid. Five months after starting on T3 with increasing doses, their weight had dropped to 209 lbs. Their BP was 118/66 mmHg with pulse of 74 on lisinopril 10 mg daily, metoprolol 50 mg bid, and furosemide 40 mg daily. Instead of glipizide, they were taking metformin 500 mg bid. […] Their most recent labs on 60 mcg bid of T3 were FT3 3.8 pg/mL (nl 1.71-3.71), FT4 0.64 ng/dL (nl 0.7-1.48) and rT3 137 pg/mL (nl 90-350). Four months prior to this visit their BS was 125 mg/dl. […]

Work on `N[C@@H](Cc1cc(I)c(Oc2ccc(O)c(I)c2)c(I)c1)C(=O)O` [T3, (2S)-2-amino-3-[4-(4-hydroxy-3-iodo-phenoxy)-3,5-diiodo-phenyl]propanoic acid] yielded an FT4 (Patient Example 1, on 60 mcg bid, nl 0.7-1.48) of 0.64 ng/dL, an FT3 (Patient Example 1, on 60 mcg bid, nl 1.71-3.71) of 3.8 pg/mL and a rT3 (Patient Example 1, on 60 mcg bid, nl 90-350) of 137 pg/mL. For the same compound, the FT4 (Patient Example 2, T3 only, 25 mcg bid, nl 0.93-1.70) was 0.67 ng/dL, the FT3 (Patient Example 2, T3 only, 25 mcg bid, nl 2.2-4.0) was 2.5 pg/mL and the rT3 (Patient Example 2, T3 only, 25 mcg bid, nl 90-350) was 193 pg/mL. For the same compound, the FT4 (Patient Example 4, T3 50 mcg 2 PO q am and 1 PO 8-10 hours later, normal range 0.93-1.7) was “less than 0.1 ng/dL”, the FT3 (Patient Example 4, T3 50 mcg 2 PO q am and 1 PO 8-10 hours later, normal range 2.2-4.0) was 7.0 pg/mL and the rT3 (Patient Example 4, T3 50 mcg 2 PO q am and 1 PO 8-10 hours later, normal range 90-350) was “less than 15 pg/mL”.
